According to PubChem BioAssay AID1259407 (Chemical Carcinogenesis Research Information System (CCRIS), 2018):
Activity calls are given as the source filed them. No rule for the calls is given here.

Test system: CCRIS mutagenicity, Ames/micronucleus/aberration tests
Assay: CCRIS mutagenicity studies
[1] = Test System: AMES SALMONELLA TYPHIMURIUM, Strain/Indicator: TA98, Metabolic Activation: NONE, Method: STANDARD PLATE
[2] = Test System: AMES SALMONELLA TYPHIMURIUM, Strain/Indicator: TA98, Metabolic Activation: RAT, LIVER, S-9, AROCLOR 1254, Method: STANDARD PLATE
[3] = Test System: AMES SALMONELLA TYPHIMURIUM, Strain/Indicator: TA100, Metabolic Activation: NONE, Method: STANDARD PLATE
[4] = Test System: AMES SALMONELLA TYPHIMURIUM, Strain/Indicator: TA97, Metabolic Activation: NONE, Method: STANDARD PLATE
[5] = Test System: AMES SALMONELLA TYPHIMURIUM, Strain/Indicator: TA97, Metabolic Activation: RAT, LIVER, S-9, AROCLOR 1254, Method: STANDARD PLATE
[6] = Test System: AMES SALMONELLA TYPHIMURIUM, Strain/Indicator: TA100, Metabolic Activation: RAT, LIVER, S-9, AROCLOR 1254, Method: STANDARD PLATE
[7] = Test System: AMES SALMONELLA TYPHIMURIUM, Strain/Indicator: TA1537, Metabolic Activation: NONE, Method: STANDARD PLATE
[8] = Test System: AMES SALMONELLA TYPHIMURIUM, Strain/Indicator: TA1537, Metabolic Activation: RAT, LIVER, S-9, AROCLOR 1254, Method: STANDARD PLATE
[9] = Test System: AMES SALMONELLA TYPHIMURIUM, Strain/Indicator: TA98, Metabolic Activation: NONE, Method: PREINCUBATION

## O=[N+]([O-])c1c2ccccc2c2ccc3cccc4ccc1c2c43
Test System: AMES SALMONELLA TYPHIMURIUM, Strain/Indicator: TA98 (1,8-DNP6), Metabolic Activation: NONE, Method: STANDARD PLATE
  mutagenic call: inactive; negative
Test System: AMES SALMONELLA TYPHIMURIUM, Strain/Indicator: TA98 (NR), Metabolic Activation: NONE, Method: STANDARD PLATE
  mutagenic call: inactive; negative
[1]
  mutagenic call: inactive; negative
Test System: AMES SALMONELLA TYPHIMURIUM, Strain/Indicator: TA98, Metabolic Activation: NONE, Method: STANDARD PLATE (ANAEROBIC)
  mutagenic call: inactive; negative
Test System: AMES SALMONELLA TYPHIMURIUM, Strain/Indicator: TA98, Metabolic Activation: RAT, LIVER, HEPATOCYTES, AROCLOR 1254
  mutagenic call: inactive; negative
Test System: AMES SALMONELLA TYPHIMURIUM, Strain/Indicator: TA98, Metabolic Activation: RAT, LIVER, S-9, 3-METHYLCHOLANTHRENE, Method: STANDARD PLATE
  mutagenic call: active; positive
[2]
  mutagenic call: active; positive
Test System: AMES SALMONELLA TYPHIMURIUM, Strain/Indicator: TA98, Metabolic Activation: RAT, LIVER, S-9, BETA-NAPHTHOFLAVONE, Method: STANDARD PLATE
  mutagenic call: active; positive
Test System: AMES SALMONELLA TYPHIMURIUM, Strain/Indicator: TA98, Metabolic Activation: RAT, LIVER, S-9, PHENOBARBITAL, Method: STANDARD PLATE
  mutagenic call: inactive; negative
[3]
  mutagenic call: inactive; negative
Test System: AMES SALMONELLA TYPHIMURIUM, Strain/Indicator: TA100, Metabolic Activation: RAT, LIVER, S-9, AROCLOR 1254 (20 OR 50 µL), Method: STANDARD PLATE
  mutagenic call: active; positive
Test System: CHINESE HAMSTER OVARY, Strain/Indicator: CHO-K1-BH4 (HGPRT), Metabolic Activation: NONE
  mutagenic call: inactive; negative
Test System: CHO/HGPRT, Strain/Indicator: CHO-K1-BH4, Metabolic Activation: NONE
  mutagenic call: inactive; negative
Test System: CHO/HGPRT, Strain/Indicator: CHO-K1-BH4, Metabolic Activation: RAT, LIVER, HEPATOCYTES
  mutagenic call: inactive; negative
Test System: CHO/HGPRT, Strain/Indicator: CHO-K1-BH4, Metabolic Activation: RAT, LIVER, HEPATOCYTES, 3-METHYLCHOLANTHRENE
  mutagenic call: inactive; negative
Test System: CHO/HGPRT, Strain/Indicator: CHO-K1-BH4, Metabolic Activation: RAT, LIVER, HEPATOCYTES, AROCLOR 1254
  mutagenic call: inactive; negative
Test System: CHO/HGPRT, Strain/Indicator: CHO-K1-BH4, Metabolic Activation: RAT, LIVER, S-9
  mutagenic call: inactive; negative
Test System: CHO/HGPRT, Strain/Indicator: CHO-K1-BH4, Metabolic Activation: RAT, LIVER, S-9, 3-METHYLCHOLANTHRENE
  mutagenic call: inactive; negative
Test System: CHO/HGPRT, Strain/Indicator: CHO-K1-BH4, Metabolic Activation: RAT, LIVER, S-9, AROCLOR 1254
  mutagenic call: inactive; negative

## O=C1CCC(N2C(=O)c3ccccc3C2=O)C(=O)N1 (stereo not given)
[4]
  mutagenic call: inactive; negative
[5]
  mutagenic call: inactive; negative
[1]
  mutagenic call: inactive; negative
Test System: AMES SALMONELLA TYPHIMURIUM, Strain/Indicator: TA98, Metabolic Activation: RAT, LIVER, S-9, AROCLOR 1254 (4, 10 OR 30%), Method: PREINCUBATION
  mutagenic call: inactive; negative
[2]
  mutagenic call: inactive; negative
[3]
  mutagenic call: inactive; negative
Test System: AMES SALMONELLA TYPHIMURIUM, Strain/Indicator: TA100, Metabolic Activation: RAT, LIVER, S-9, AROCLOR 1254 (10%), Method: PREINCUBATION
  mutagenic call: inactive; negative
[6]
  mutagenic call: inactive; negative
Test System: AMES SALMONELLA TYPHIMURIUM, Strain/Indicator: TA1535, Metabolic Activation: NONE, Method: STANDARD PLATE
  mutagenic call: inactive; negative
Test System: AMES SALMONELLA TYPHIMURIUM, Strain/Indicator: TA1535, Metabolic Activation: RAT, LIVER, S-9, AROCLOR 1254, Method: STANDARD PLATE
  mutagenic call: inactive; negative
[7]
  mutagenic call: inactive; negative
[8]
  mutagenic call: inactive; negative
Test System: AMES SALMONELLA TYPHIMURIUM, Strain/Indicator: TA1538, Metabolic Activation: NONE, Method: STANDARD PLATE
  mutagenic call: inactive; negative
Test System: AMES SALMONELLA TYPHIMURIUM, Strain/Indicator: TA1538, Metabolic Activation: RAT, LIVER, S-9, AROCLOR 1254, Method: STANDARD PLATE
  mutagenic call: inactive; negative
Test System: MOUSE LYMPHOMA, Strain/Indicator: L5178Y (TK+/TK-), Metabolic Activation: NONE, Method: MICROWELL
  mutagenic call: inactive; negative
Test System: MOUSE LYMPHOMA, Strain/Indicator: L5178Y (TK+/TK-), Metabolic Activation: RAT, LIVER, S-9, PHENOBARBITAL AND BETA-NAPHTHOFLAVONE, Method: MICROWELL
  mutagenic call: inactive; negative

## NC(=O)c1ccc(N)nc1
Test System: CHINESE HAMSTER OVARY, Strain/Indicator: CHO/6-THIOGUANINE, Metabolic Activation: NONE
  mutagenic call: inactive; negative
Test System: CHINESE HAMSTER OVARY, Strain/Indicator: CHO/6-THIOGUANINE, Metabolic Activation: RAT, LIVER, S-9
  mutagenic call: inactive; negative
Test System: CHINESE HAMSTER OVARY, Strain/Indicator: CHO/OUABAIN, Metabolic Activation: NONE
  mutagenic call: inactive; negative
Test System: CHINESE HAMSTER OVARY, Strain/Indicator: CHO/OUABAIN, Metabolic Activation: RAT, LIVER, S-9
  mutagenic call: inactive; negative

## CCC(=O)N(O)c1ccc(/C=C/c2ccccc2)cc1
[9]
  mutagenic call: inactive; negative
Test System: AMES SALMONELLA TYPHIMURIUM, Strain/Indicator: TA98, Metabolic Activation: RAT, LIVER, CYTOSOL, Method: PREINCUBATION
  mutagenic call: active; positive
Test System: AMES SALMONELLA TYPHIMURIUM, Strain/Indicator: TA98, Metabolic Activation: RAT, LIVER, MICROSOMES, Method: PREINCUBATION
  mutagenic call: active; positive

## CC(O)C(C)[N+](=O)[O-] (stereo not given)
[9]
  mutagenic call: inactive; negative
Test System: AMES SALMONELLA TYPHIMURIUM, Strain/Indicator: TA98, Metabolic Activation: RAT, LIVER, S-9, AROCLOR, Method: PREINCUBATION
  mutagenic call: inactive; negative
Test System: AMES SALMONELLA TYPHIMURIUM, Strain/Indicator: TA100, Metabolic Activation: NONE, Method: PREINCUBATION
  mutagenic call: inactive; negative
Test System: AMES SALMONELLA TYPHIMURIUM, Strain/Indicator: TA102, Metabolic Activation: NONE, Method: PREINCUBATION
  mutagenic call: inactive; negative
Test System: AMES SALMONELLA TYPHIMURIUM, Strain/Indicator: TA102, Metabolic Activation: RAT, LIVER, S-9, AROCLOR, Method: PREINCUBATION
  mutagenic call: inactive; negative

## COc1c(Cl)cc2c(c1OC)N(C)[C@@H]1N3C(=O)[C@@]4(C)SS[C@@]3(C(=O)N4C)[C@H](O)[C@]21O
[1]
  mutagenic call: inactive; negative
[2]
  mutagenic call: inactive; negative
[3]
  mutagenic call: inactive; negative
[6]
  mutagenic call: inactive; negative
Test System: AMES SALMONELLA TYPHIMURIUM, Strain/Indicator: TA102, Metabolic Activation: NONE, Method: STANDARD PLATE
  mutagenic call: inactive; negative
Test System: AMES SALMONELLA TYPHIMURIUM, Strain/Indicator: TA102, Metabolic Activation: RAT, LIVER, S-9, AROCLOR 1254, Method: STANDARD PLATE
  mutagenic call: inactive; negative
[7]
  mutagenic call: inactive; negative
[8]
  mutagenic call: inactive; negative

## OC[C@H]1O[C@@H](OC2[C@@H](CO)O[C@H](O)[C@H](O)[C@H]2O)[C@H](O)[C@@H](O)C1O[C@@H]1O[C@H](CO)[C@@H](O)[C@H](O)[C@H]1O (stereo not given in full)
End Point: IN VIVO CHROMOSOMAL ABERRATIONS, Test System: BONE MARROW CELLS, Species: MOUSE, Strain/Sex: CD-1, MALE, Route: IP
  mutagenic call: inactive; negative
End Point: IN VIVO CHROMOSOMAL ABERRATIONS, Test System: SPERMATOGONIAL CELLS, Species: MOUSE, Strain/Sex: CD-1, MALE, Route: IP
  mutagenic call: inactive; negative

## CN=C1C=CC(=C(c2ccc(NC)cc2)c2ccc(N(C)C)cc2)C=C1
[4]
  mutagenic call: inactive; negative
[5]
  mutagenic call: inactive; negative
[1]
  mutagenic call: inactive; negative
[2]
  mutagenic call: inactive; negative
[3]
  mutagenic call: inactive; negative
[6]
  mutagenic call: inactive; negative
Test System: AMES SALMONELLA TYPHIMURIUM, Strain/Indicator: TA104, Metabolic Activation: NONE, Method: STANDARD PLATE
  mutagenic call: inactive; negative
Test System: AMES SALMONELLA TYPHIMURIUM, Strain/Indicator: TA104, Metabolic Activation: RAT, LIVER, S-9, AROCLOR 1254, Method: STANDARD PLATE
  mutagenic call: inactive; negative
